Results on five compounds are retold here after US4879376A, “Triterpene saponins having anti-inflammatory, mucolytic and antiedemic activities, process for the preparation thereof and pharmaceutical compositions containing them” (priority 1986, dated 1989).

In series [1] the test system is carrageenin oedema on rat paw. The experiment in a line: Antioedema activity (carrageenin oedema test). It counts as in vivo. The protocol: (b) Antioedema activity (carrageenin oedema test) Antioedema activity was evaluated in the test of carrageenin oedema on rat paw, after oral and topical administration.
A general note: Carrageenan injected into the paw causes an acute inflammation.

A further series deals with phenylquinone writhing. The experiment in a line: Analgesic activity (phenylquinone writhing test). It counts as in vivo. To be noted: mouse. An excerpt:
(c) Analgesic activity (phenylguinone writhing test)

A further series has as its system mucus excretion. The series is described as follows: Mucolytic / expectorant activity (sodium fluorescein excretion). To be noted: mouse. It is filed as in vivo.
In another series the test system is rat. To be noted: in vivo, po. The text has this:
| ^a maximal nondiarrhoic dose

As to `CC(=O)Oc1ccccc1C(=O)O` [ASA, acetylsalicylic acid], the “% change in paw oedema versus controls” value in series [1] (1 hour, 200 mg/kg os) was -51%; in series [1] (2 hours, 200 mg/kg os), -39%; in series [1] (3 hours, 200 mg/kg os), -52%; in series [1] (4 hours, 200 mg/kg os) it was -45%; in series [1] (5 hours, 200 mg/kg os) it was -42%. In addition, the “% Variation in comparison with controls” value in the series with phenylquinone writhing (50 mg/kg os) is reported as -31%; in the series with phenylquinone writhing (100 mg/kg os), -32%.

In the case of `CN(Cc1cc(Br)cc(Br)c1N)C1CCCCC1` [Bromhexin, Bromhexine], the “% increase of sodium fluorescein excretion in comparison with controls” value in the series on mucus excretion (75 × 1 mg/kg) was “+48%”.

On to `CCCCC1C(=O)N(c2ccccc2)N(c2ccccc2)C1=O` [Phenylbutazone], for which the “% change in paw oedema versus controls” value in series [1] (1 hour, 100 mg/kg os) is given as -38%; in series [1] (2 hours, 100 mg/kg os) it was -30%; in series [1] (3 hours, 100 mg/kg os), -58%; in series [1] (4 hours, 100 mg/kg os), -54%; in series [1] (5 hours, 100 mg/kg os) it was -47%.

In the case of `CC1=CCC(C(C)(C)O)CC1O` (centres unmarked) [Sobrerol], the “% increase of sodium fluorescein excretion in comparison with controls” value with mucus excretion (150 × 1 mg/kg) is recorded as “+67%”.

For Escine, in the series with rat, the maximal nondiarrhoic dose amounted to 50 mg/kg. The “% change in paw oedema versus controls” value in series [1] (1 hour, 50 mg/kg os (maximal nondiarrhoic dose)) is recorded as -39%; in series [1] (2 hours, 50 mg/kg os (maximal nondiarrhoic dose)), -44%; in series [1] (3 hours, 50 mg/kg os (maximal nondiarrhoic dose)), -51%; in series [1] (4 hours, 50 mg/kg os (maximal nondiarrhoic dose)) it was -49%; in series [1] (5 hours, 50 mg/kg os (maximal nondiarrhoic dose)), -35%.
